This is an account of results in US6960685B2 (TopoTarget UK Limited, priority 2000, dated 2005).

In test [1] the test system is HDAC (HeLa cell extract). As to the kind of experiment: Primary assay: deacetylase activity, HeLa cell extract as source of HDAC. Type of test: biochemical, human. From the text: Briefly, this assay relies on the release of radioactive acetate from a radioactively labelled histone fragment by the action of HDAC enzyme. Test compounds, which inhibit HDAC, reduce the yield of radioactive acetate. Signal (e.g., scintillation counts) measured in the presence and absence of a test compound provide an indication of that compound's ability to inhibit HDAC activity. Decreased activity indicates increased inhibition by the test compound.
The histone fragment was an N-terminal sequence from histone H4, and it was labelled with radioactively labelled acetyl groups using tritiated acetylcoenzyme A (coA) in conjunction with an enzyme which is the histone acetyltransferase domain of the transcriptional coactivator p300. 0.33 mg of peptide H4 (the N-terminal 20 amino acids of histone H4, synthesized using conventional methods) were incubated with His6-tagged p300 histone acetyltransferase domain (amino acids 1195-1673, expressed in E coli strain BLR(DE3)pLysS (Novagen, Cat. No. 69451-3) and 3H-acetyl coA (10 μL of 3.95 Ci/mmol; from Amersham) in a total volume of 300 μL of HAT buffer (50 mM TrisCl pH 8, 5% glycerol, 50 mM KCl, 0.1 mM ethylenediaminetetraacetic acid (EDTA), 1 mM dithiothreitol (DTT) and 1 mM 4-(2-aminoethyl)-benzenesulfonylfluoride (AEBSF)). The mixture was incubated at 30° C. for 45 min after which the His-p300 was removed using nickel-trinitriloacetic acid agarose (Qiagen, Cat No. 30210). The acetylated peptide was then separated from free acetyl coA by size exclusion chromatography on Sephadex G-15 (Sigma G-15-120), using distilled H2O as the mobile phase.
After purification of the radiolabelled histone fragment, it was incubated with a source of HDAC (e.g., an extract of HeLa cells (a rich source of HDAC), recombinantly produced HDAC1 or HDAC2) and any released acetate was extracted into an organic phase and quantitatively determined using scintillation counting. By including a test compound with the source of HDAC, that compound's ability to inhibit the HDAC was determined.
Two cell volumes of extraction buffer were used, and particulate material was centrifuged out (20800 g, 4° C., 10 min). The supernatant extract having deacetylase activity was aliquotted and frozen for storage.
A source of HDAC (e.g., 2 μL of crude HeLa extract, 5 μL of HDAC1 or HDAC2; in elution buffer, as above) was incubated with 3 μL of radioactively labelled peptide along with appropriate dilutions of candidate compounds (1.5 μL) in a total volume of 150 μL of buffer (20 mM Tris pH 7.4, 10% glycerol). The reaction was carried out at 37° C. for one hour, after which the reaction was stopped by adding 20 μL of 1 M HCl/0.4 M sodium acetate. Then, 750 μL of ethyl acetate was added, the samples vortexed and, after centrifugation (14000 rpm, 5 min), 600 μL from the upper phase were transferred to a vial containing 3 mL of scintillation liquid (UltimaGold, Packard, Cat. No. 6013329). Radioactivity was measured using a Tri-Carb 2100TR Liquid Scintillation Analyzer (Packard).
Percent activity (% activity) for each test compound was calculated as: % activity={(S^C−B)/(S^o−B)}×100 wherein S^c denotes signal measured in the presence of enzyme and the compound being tested, S^o denotes signal measured in the presence of enzyme but in the absence of the compound being tested, and B denotes the background signal measured in the absence of both enzyme and compound being tested.

Test [2] deals with K11 HPV E7 transformed human keratinocyte line. As to the kind of experiment: Secondary assay: cell proliferation WST-1, K11. It is filed as cell-based. Particulars: K11, 48 h, read-out: Cell Proliferation Inhibition WST-1 IC50, K11. The protocol:
(§1) Compounds with HDAC inhibition activity, as determined using the primary assay, were subsequently evaluated using secondary cell-based assays. The following cell lines were used:
K11—HPV E7 transformed human keratinocyte line provided by Pidder Jansen-Duerr, Institut für Biomedizinische Alternsforschung, Innsbruck, Austria.
(§2) Cells were plated in 96-well plates at 3-10×10^3 cells/well in 100 μL of culture medium. The following day, different concentrations of candidate compounds were added and the cells incubated at 37° C. for 48 h. Subsequently, 10 μL/well of WST-1 reagent was added and the cells reincubated for 1 hour. After the incubation time, absorbance was measured.
WST-1 is a tetrazolium salt which is cleaved to formazan dye by cellular enzymes. An expansion in the number of viable cells results in an increase in the overall activity of mitochondrial dehydrogenases in the sample. […] The formazan dye produced is quantified by a scanning multiwell spectrophotometer by measuring the absorbance of the dye solution at 450 nm wavelength (reference wavelength 690 nm).
IC50 values were calculated using the software package Prism 3.0 (GraphPad Software Inc., San Diego, Calif.), setting top value at 100 and bottom value at 0.
(Formazan colour is commonly taken as a measure of viable cells.)

The test system of test [3] is JURKAT human T-cell line. As to the kind of experiment: Secondary assay: cell proliferation WST-1, Jurkat. It is filed as cell-based. The settings on record: 48 h, read-out: Cell Proliferation Inhibition WST-1 IC50, Jurkat. Here is the method: as §1
JURKAT—Human T-cell line (ATCC no. TIB-152).
as §2
(§3) WST-1 is a tetrazolium salt which is cleaved to formazan dye by cellular enzymes. […] The formazan dye produced is quantified by a scanning multiwell spectrophotometer by measuring the absorbance of the dye solution at 450 nm wavelength (reference wavelength 690 nm).
(§4) Percent activity (% activity) in reducing the number of viable cells was calculated for each test compound as: % activity={(S^C−B)/(S^o−B)}×100 wherein S^C denotes signal measured in the presence of the compound being tested, S^o denotes signal measured in the absence of the compound being tested, and B denotes the background signal measured in blank wells containing medium only. […] IC50 values were calculated using the software package Prism 3.0 (GraphPad Software Inc., San Diego, Calif.), setting top value at 100 and bottom value at 0.

Test [4] concerns HeLa cells. As to the kind of experiment: Secondary assay: cell proliferation WST-1, HeLa. It is filed as cell-based. The settings on record: Homo sapiens, 48 h, read-out: Cell Proliferation Inhibition WST-1 IC50, HeLa. Here is the method: as §1, §2, §3, §4

On to `O=C(CCSCCNC(=O)c1ccc2ccccc2c1)NO` [Compound 6, E-Naphthalene-2-carboxylic acid [2-(2-hydroxycarbamoylethylsulfanyl)ethyl]amide], for which, in test [1] (@ 500 nM), the “HDAC Inhibition, HeLa (percent activity)” value is 43% @ 500 nM.

On to `O=C(/C=C/C#Cc1cccc(NS(=O)(=O)c2ccccc2)c1)NO` [Oxamflatin, (2E)-5-[3-[(phenylsulfonyl)amino]phenyl]-pent-2-en-4-ynohydroxamic acid, reference compound], for which the IC50 in test [2] was 4.82 µM; in test [3], 0.17 µM.

`CN(C)c1ccc(NC(=O)COCC(=O)NO)cc1` [Compound 4]: in test [1] (@ 1.0 μM), the “HDAC Inhibition, HeLa (percent activity)” value is listed as 0% @ 1 μM.

In the case of `O=C(/C=C/C=C/c1ccccc1)NCCSCCC(=O)NO` [Compound 5, (2E)(4E)-5-Phenylpenta-2,4-dienoic acid [2-(2-hydroxycarbamoylethylsulfanyl)ethyl]amide], in test [1] (@ 500 nM), the “HDAC Inhibition, HeLa (percent activity)” value is reported as 74% @ 500 nM. For the same compound, in test [4], the IC50 amounted to 87 µM.

In the case of `O=C(/C=C/c1ccccc1)Nc1cccc(OCC(=O)NO)c1` [Compound 8, (E)-N-{3-[2-(Hydroxyamino)-2-oxoethoxy]phenyl}-3-phenyl-2-propenamide], the IC50 in test [1] (unit inferred, read-out: HDAC Inhibition IC50, HeLa) worked out at 0.75 µM; in test [2] it was 1.05 µM; in test [3] it was 12.7 µM; in test [4] it was 25 µM.

Consider `CC(C)c1ccc(NC(=O)COCC(=O)NO)cc1` [Compound 1], for which the “HDAC Inhibition, HeLa (percent activity)” value in test [1] (@ 1.0 μM) amounted to 16% @ 1.0 μM.

For the compound `CN(C)c1ccc(NC(=O)CSCC(=O)NO)cc1` [Compound 2], in test [1] (@ 500 nM), the “HDAC Inhibition, HeLa (percent activity)” value is 26% @ 500 nM.

On to `O=C(/C=C/C=C/c1ccccc1)NCCCOc1ccc(CC(=O)NO)cc1` [Compound 7, (2E,4E)-N-(3-{4-[2-(Hydroxyamino)-2-oxoethyl]phenoxy}propyl)-5-phenyl-2,4-pentadienamide], for which the “HDAC Inhibition, HeLa (percent activity)” value in test [1] (@ 500 nM) was 7% @ 500 nM.
